What all share (type): in vivo, mouse
Test [1] has as its system MHC II-positive microglia in cortex and hippocampus of 5xFAD mice. Briefly: MHC II-positive activated microglia in brain tissue. The note with it: 10 mg/kg, FIGS. 26 and 27.
The subject of test [2] is 5xFAD mice. Briefly: Passive avoidance test. The note with it: 10 mg/kg orally once a day for 1 month, FIG. 22. On the procedure:
(§1) The experiment was conducted with 5X-FAD transgenic mice having Alzheimer’s disease introduced therein. The 5X FAD mouse is an animal model of Alzheimer’s disease with all the human AD-linked mutations: Swedish (K670N/ […]), Florida (1716V) and London (V7171) in APP (695) and M146L in Presenilin 1
(§2) 5xFAD mice were purchased from Jackson Lab and bred in and in through mating with C57B16/SJL F1 females, based on the information provided by the supplier. Through genotyping, the mice were divided into groups of 7-9 members, including normal groups (WT) and genetically modified groups (5xFAD): 4.5-month-old 5xFAD mice (Tg) and age-matched controls (WT). To the WT or Tg groups, a vehicle or SPA1413 was orally administered at a dose of 10 mg/kg once a day for 1 month. To test whether SPA1413 has a therapeutic effect on Alzheimer’s disease, the mice in 5 groups (WT-vehicle; WT-SPA1413 5xFAD-vehicle; 5xFAD-SPA1413; and 5xFAD-donepezil) were evaluated for cognitive ability.
Passive avoidance test: Memory impairment was evaluated using the passive avoidance test. […] After being trained to learn that an unpleasant stimulus was given thereto in the dark room, the mice were evaluated for memory for the corresponding content as step-through latency.

Test [3] concerns 5xFAD mice. Nature of the test: Novel object recognition test. The note with it: 10 mg/kg orally once a day for 1 month, between groups, FIG. 20. On the procedure: as §1, §2
For a novel object recognition test, the Ethovision XT 9 system was used to examine whether an animal was interested in a new object. […] An object newly recognizable to the animals was put into the box, and the time and frequency of staying near the object were measured to determine how interested the animals were in it. […]

Consider `Oc1ccc(C2=Cc3ccc(O)cc3OC2)cc1` [SPA1413, 3-(4-Hydroxyphenyl)-2H-chromen-7-ol], for which the “number of activated microglia showing a positive MHC II reaction” value in test [1] is “significantly decrease”. In addition, in test [2], the step-through latency result is “significantly recovered”. Further, in test [3], the total distance result was “no significant difference” and the velocity entry is “no significant difference”.

(Values after patent publication US20230330059A1, “3-PHENYL-2H-CHROMENE DERIVATIVE AND PHARMACEUTICAL COMPOSITION FOR PREVENTING OR TREATING ALZHEIMER'S, CONTAINING SAME” (NEUROBIONET, INC., priority 2020, published 2023).)
